Drawing on the supplement of paper PMC12463676, “Small-molecule dissolution of stress granules by redox modulation benefits ALS models” (Nature Chemical Biology, 2025), this text covers thermal stability z-score for 42 targets.

Compound in one assay: NC(=O)CCCCC1CCSS1 [lipoamide]
Description: thermal stability z-score vs DMSO; higher = more thermally stabilized by treatment. To be noted: HeLa, lipoamide concentration 100 µM. As for the experimental part:
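Cellular thermal proteome profiling in HeLa cells. Cells were treated with 100 µM lipoamide for 1 h, with or without 1 mM arsenate for a further 1 h, then heated to ten temperatures (37-66.3 °C), and soluble protein was quantified by TMT mass spectrometry relative to 0.1% DMSO controls. The thermal stability score (sum of log2 fold changes minus the abundance score) was transformed to a z-score; mean of n = 3 experiments.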

Compound in the next assay: O=[As]([O-])(O)O.[K+] [potassium arsenate]
Described as above. To be noted: HeLa; arsenate concentration 1 mM. As for the experimental part:
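Cellular thermal proteome profiling in HeLa cells treated with 1 mM arsenate for 1 h (DMSO pretreatment), heated to ten temperatures (37-66.3 °C). Soluble protein was quantified by TMT mass spectrometry relative to DMSO controls; the thermal stability score was transformed to a z-score; mean of n = 3 experiments.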

The mark [1] stands for this setting: arsenate co-treatment: 1 mM arsenate 1 h.
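Note: each temperature applied for 3 min, abundance score taken as mean log2 fold change at the two lowest temperatures, z-score obtained by mean subtraction and division by SD.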

Chain of UniProt Q8NC44 (Q8NC44 whole entry): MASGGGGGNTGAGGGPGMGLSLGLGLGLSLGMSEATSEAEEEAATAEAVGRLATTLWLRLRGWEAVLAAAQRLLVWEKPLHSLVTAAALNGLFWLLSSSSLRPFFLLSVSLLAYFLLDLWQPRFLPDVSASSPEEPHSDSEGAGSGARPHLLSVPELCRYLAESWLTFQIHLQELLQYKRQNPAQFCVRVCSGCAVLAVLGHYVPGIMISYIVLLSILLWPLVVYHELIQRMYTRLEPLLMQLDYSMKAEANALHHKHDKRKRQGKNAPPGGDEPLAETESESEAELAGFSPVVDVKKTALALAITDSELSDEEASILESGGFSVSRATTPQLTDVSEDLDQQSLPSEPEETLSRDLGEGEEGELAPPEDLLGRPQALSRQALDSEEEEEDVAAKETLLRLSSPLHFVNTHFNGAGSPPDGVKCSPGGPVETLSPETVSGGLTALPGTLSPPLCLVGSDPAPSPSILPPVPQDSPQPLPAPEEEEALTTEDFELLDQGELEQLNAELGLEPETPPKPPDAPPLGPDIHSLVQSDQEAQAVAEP
Chain of UniProt O60244 (O60244 whole entry): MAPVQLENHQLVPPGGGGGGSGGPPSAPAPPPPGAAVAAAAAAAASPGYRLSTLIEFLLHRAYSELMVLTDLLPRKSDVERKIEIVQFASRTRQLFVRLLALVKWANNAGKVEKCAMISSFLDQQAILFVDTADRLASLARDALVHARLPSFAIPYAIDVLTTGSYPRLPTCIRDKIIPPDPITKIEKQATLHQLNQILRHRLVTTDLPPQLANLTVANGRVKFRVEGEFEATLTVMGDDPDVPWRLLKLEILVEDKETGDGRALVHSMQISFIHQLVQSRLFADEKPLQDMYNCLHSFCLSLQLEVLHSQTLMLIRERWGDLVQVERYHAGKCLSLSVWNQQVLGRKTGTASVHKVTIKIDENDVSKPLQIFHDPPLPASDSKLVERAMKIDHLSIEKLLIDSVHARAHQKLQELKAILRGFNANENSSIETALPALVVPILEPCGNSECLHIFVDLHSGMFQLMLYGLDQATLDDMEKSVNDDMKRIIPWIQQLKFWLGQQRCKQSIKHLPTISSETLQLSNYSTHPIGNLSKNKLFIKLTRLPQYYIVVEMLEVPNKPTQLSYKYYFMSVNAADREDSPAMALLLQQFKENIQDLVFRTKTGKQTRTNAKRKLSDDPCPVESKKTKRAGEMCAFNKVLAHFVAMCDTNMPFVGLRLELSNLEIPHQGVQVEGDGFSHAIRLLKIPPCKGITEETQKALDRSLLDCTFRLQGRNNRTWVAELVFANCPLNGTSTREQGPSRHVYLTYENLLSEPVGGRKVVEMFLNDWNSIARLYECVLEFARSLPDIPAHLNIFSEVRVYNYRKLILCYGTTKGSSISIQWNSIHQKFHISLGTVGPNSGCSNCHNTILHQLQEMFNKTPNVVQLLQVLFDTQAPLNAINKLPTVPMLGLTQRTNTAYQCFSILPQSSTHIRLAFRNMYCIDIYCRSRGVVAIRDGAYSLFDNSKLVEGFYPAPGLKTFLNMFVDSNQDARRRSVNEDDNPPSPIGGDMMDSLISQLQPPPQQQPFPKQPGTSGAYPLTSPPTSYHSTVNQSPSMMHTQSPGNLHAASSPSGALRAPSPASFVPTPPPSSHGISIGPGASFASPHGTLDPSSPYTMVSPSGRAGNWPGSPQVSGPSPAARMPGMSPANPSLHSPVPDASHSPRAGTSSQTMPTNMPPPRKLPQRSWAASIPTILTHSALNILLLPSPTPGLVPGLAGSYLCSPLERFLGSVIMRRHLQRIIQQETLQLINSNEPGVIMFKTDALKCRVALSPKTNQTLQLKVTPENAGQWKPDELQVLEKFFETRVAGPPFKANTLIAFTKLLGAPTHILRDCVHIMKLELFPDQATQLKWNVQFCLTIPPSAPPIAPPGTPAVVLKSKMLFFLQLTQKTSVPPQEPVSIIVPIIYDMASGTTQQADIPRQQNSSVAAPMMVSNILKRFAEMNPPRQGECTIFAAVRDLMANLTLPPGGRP
Chain of UniProt Q9ULI3 (Q9ULI3 whole entry): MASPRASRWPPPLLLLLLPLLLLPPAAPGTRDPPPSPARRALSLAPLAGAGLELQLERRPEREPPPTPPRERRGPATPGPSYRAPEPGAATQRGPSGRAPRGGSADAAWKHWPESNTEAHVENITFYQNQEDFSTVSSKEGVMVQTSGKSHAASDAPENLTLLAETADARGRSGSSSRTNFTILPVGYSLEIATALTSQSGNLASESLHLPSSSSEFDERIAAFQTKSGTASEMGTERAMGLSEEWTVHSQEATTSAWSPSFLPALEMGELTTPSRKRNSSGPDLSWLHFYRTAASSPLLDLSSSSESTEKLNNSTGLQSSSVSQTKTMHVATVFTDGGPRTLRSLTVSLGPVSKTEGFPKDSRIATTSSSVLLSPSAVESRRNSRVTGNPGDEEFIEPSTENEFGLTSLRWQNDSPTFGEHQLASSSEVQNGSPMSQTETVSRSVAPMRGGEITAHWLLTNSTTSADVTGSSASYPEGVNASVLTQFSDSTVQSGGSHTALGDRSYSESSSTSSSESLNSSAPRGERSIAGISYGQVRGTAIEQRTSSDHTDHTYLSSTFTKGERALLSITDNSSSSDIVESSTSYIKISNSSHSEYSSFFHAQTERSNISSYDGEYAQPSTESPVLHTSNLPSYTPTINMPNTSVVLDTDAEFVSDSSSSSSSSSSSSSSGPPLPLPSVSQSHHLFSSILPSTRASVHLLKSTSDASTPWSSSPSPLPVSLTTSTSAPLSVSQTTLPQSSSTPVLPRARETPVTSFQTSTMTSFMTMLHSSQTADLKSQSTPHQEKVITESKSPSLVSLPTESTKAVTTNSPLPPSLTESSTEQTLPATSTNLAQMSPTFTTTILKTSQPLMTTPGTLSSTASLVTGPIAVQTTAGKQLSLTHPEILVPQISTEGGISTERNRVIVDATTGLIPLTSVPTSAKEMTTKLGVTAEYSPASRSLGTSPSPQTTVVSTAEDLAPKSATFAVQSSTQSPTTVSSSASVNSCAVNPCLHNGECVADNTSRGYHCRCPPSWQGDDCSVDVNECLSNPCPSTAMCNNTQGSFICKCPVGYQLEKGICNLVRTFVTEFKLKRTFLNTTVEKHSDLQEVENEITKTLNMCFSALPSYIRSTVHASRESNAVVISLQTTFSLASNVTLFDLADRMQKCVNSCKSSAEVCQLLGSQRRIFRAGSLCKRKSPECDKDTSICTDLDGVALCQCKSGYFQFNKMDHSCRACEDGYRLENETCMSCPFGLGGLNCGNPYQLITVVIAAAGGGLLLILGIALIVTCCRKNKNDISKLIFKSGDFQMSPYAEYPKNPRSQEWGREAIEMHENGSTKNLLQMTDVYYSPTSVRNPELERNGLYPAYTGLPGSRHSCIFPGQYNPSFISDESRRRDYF
Chain of UniProt P29966 (P29966 whole entry): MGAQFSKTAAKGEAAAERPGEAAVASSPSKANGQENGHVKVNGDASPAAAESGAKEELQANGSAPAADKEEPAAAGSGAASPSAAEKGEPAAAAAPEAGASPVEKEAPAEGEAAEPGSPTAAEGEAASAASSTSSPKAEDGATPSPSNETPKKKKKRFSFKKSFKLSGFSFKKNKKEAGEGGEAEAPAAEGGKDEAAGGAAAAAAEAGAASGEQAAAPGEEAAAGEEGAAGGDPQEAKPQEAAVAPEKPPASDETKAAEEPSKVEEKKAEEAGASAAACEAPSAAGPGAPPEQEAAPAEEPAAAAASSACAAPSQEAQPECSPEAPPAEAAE
Chain of UniProt P48382 (P48382 whole entry): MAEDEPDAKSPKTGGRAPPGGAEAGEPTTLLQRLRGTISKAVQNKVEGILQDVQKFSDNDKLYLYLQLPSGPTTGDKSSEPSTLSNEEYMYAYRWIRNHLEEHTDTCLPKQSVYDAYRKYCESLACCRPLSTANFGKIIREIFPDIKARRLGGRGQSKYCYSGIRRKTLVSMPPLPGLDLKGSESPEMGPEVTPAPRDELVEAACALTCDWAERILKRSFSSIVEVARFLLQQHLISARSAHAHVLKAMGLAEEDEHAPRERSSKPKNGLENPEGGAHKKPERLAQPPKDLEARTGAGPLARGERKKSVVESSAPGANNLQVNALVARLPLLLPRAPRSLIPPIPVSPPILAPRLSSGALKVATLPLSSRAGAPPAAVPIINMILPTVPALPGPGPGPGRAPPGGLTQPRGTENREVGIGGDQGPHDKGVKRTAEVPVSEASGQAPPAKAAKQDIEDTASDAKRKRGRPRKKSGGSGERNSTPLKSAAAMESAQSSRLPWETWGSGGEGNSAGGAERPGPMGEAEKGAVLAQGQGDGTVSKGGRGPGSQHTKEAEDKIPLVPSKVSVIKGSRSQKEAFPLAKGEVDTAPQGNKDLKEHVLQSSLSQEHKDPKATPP
Chain of UniProt P30520 (P30520 whole entry): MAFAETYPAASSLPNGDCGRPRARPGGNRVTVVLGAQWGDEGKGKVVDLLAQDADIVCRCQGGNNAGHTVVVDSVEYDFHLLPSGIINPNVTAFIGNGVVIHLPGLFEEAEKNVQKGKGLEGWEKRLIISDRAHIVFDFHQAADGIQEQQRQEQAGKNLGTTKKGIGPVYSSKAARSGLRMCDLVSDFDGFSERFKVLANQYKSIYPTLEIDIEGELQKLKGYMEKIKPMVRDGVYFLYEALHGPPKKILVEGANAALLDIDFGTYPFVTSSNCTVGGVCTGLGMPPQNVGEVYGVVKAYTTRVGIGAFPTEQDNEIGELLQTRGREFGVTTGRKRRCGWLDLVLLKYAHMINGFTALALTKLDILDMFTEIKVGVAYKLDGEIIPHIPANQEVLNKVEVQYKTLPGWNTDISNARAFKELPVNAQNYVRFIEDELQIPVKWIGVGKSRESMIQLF
Chain of UniProt P51149 (P51149 whole entry): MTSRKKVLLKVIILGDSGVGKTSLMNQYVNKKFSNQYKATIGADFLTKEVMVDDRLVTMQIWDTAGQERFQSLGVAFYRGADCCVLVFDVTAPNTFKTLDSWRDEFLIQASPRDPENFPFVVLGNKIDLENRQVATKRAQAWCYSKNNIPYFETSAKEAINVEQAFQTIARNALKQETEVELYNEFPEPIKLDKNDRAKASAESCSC

Take RILPL1 (UniProt Q5EBL4): the thermal stability z-score with lipoamide (setting [1]) is 0.571; with lipoamide (arsenate co-treatment: none) it was 0.0309; in the assay with potassium arsenate, 1.21.
In the case of CCDC127 (UniProt Q96BQ5), the values for the thermal stability z-score with lipoamide (setting [1]), in the assay with lipoamide (arsenate co-treatment: none) and with potassium arsenate were -0.707, -0.371 and -0.192, respectively.
As for GNAI3 (UniProt P08754), the results for the thermal stability z-score in the assay with lipoamide (setting [1]), with lipoamide (arsenate co-treatment: none) and with potassium arsenate were 0.0735, 0.0764 and -1.24, respectively.
With FAM134A (UniProt Q8NC44), the thermal stability z-score was 0.119 with lipoamide (setting [1]), -0.141 with lipoamide (arsenate co-treatment: none) and -0.162 in the assay with potassium arsenate.
As to TFDP1 (UniProt Q14186), the thermal stability z-score is -0.00506 in the assay with lipoamide (setting [1]), 0.0652 with lipoamide (arsenate co-treatment: none) and -0.0388 with potassium arsenate.
As to SLC9A6 (UniProt Q92581), the thermal stability z-score was -0.145 with lipoamide (setting [1]), -0.0692 with lipoamide (arsenate co-treatment: none) and -0.165 with potassium arsenate.
Consider RFX5 (UniProt P48382), for which the thermal stability z-score with lipoamide (setting [1]) turned out to be 0.562; with lipoamide (arsenate co-treatment: none), 0.613; with potassium arsenate, 0.132.
Consider PRKCI (UniProt P41743), for which the thermal stability z-score with lipoamide (setting [1]) is -0.507; with lipoamide (arsenate co-treatment: none) it was -0.312; in the assay with potassium arsenate, -0.914.
For UniProt F5GYJ5, in that order: 0.464, 0.437 and 0.166.
Taken in the same sequence, the figures for PABPC1 (UniProt P11940) were 0.469, 0.549 and -0.758.
For COQ7 (UniProt Q99807), in that order: -0.0244, 0.331 and 0.227.
As for RAB7A (UniProt P51149), the results for the thermal stability z-score in the assay with lipoamide (setting [1]), with lipoamide (arsenate co-treatment: none) and in the assay with potassium arsenate were 0.164, 0.352 and 0.258, respectively.
Taken in the same sequence, the figures for MARCKS (UniProt P29966) were 0.62, 0.121 and 0.943.
For the target SLC25A1 (UniProt P53007), the thermal stability z-score in the assay with lipoamide (setting [1]) was determined as 1.03; with lipoamide (arsenate co-treatment: none) it was 0.6; with potassium arsenate, 0.43.
Turning to ADSS (UniProt P30520), the values for the thermal stability z-score in the assay with lipoamide (setting [1]), in the assay with lipoamide (arsenate co-treatment: none) and with potassium arsenate were 0.449, -0.203 and -1.32, respectively.
Taken in the same sequence, the figures for CHD4 (UniProt Q14839) were 0.305, 0.561 and -0.759.
Taken in the same sequence, the figures for TXNDC15 (UniProt Q96J42) were -1.92, -0.609 and 1.16.
Taken in the same sequence, the figures for NSMAF (UniProt Q92636) were -0.123, -0.458 and -0.758.
Regarding AARS (UniProt P49588), the thermal stability z-score is -0.195 with lipoamide (setting [1]), -0.297 with lipoamide (arsenate co-treatment: none) and -1.29 in the assay with potassium arsenate.
For LIG1 (UniProt P18858), in that order: -0.166, 0.00122 and 0.24.
For DDX23 (UniProt Q9BUQ8), in that order: 0.326, 0.137 and -0.836.
ARPC2 (UniProt O15144): the thermal stability z-score with lipoamide (setting [1]) is -0.317; with lipoamide (arsenate co-treatment: none) it was -0.205; with potassium arsenate it was -1.15.
For MTPAP (UniProt Q9NVV4), in that order: 0.621, 0.936 and -0.28.
Take NUP214 (UniProt P35658): the thermal stability z-score was -0.0103 in the assay with lipoamide (setting [1]), -0.132 with lipoamide (arsenate co-treatment: none) and 0.815 with potassium arsenate.
Take SLFN5 (UniProt Q08AF3): the values for the thermal stability z-score with lipoamide (setting [1]), with lipoamide (arsenate co-treatment: none) and with potassium arsenate were -0.884, -1.21 and -0.568, respectively.
Taken in the same sequence, the figures for LARP4 (UniProt Q71RC2) were -0.463, -0.301 and -0.708.
Taken in the same sequence, the figures for CDR2 (UniProt Q01850) were 0.134, 0.141 and 0.139.
For HEG1 (UniProt Q9ULI3), in that order: -0.842, 1.15 and 0.868.
Take CD97 (UniProt P48960): the figures for the thermal stability z-score with lipoamide (setting [1]), with lipoamide (arsenate co-treatment: none) and with potassium arsenate were 0.325, 0.346 and 0.472, respectively.
For YIF1B (UniProt Q5BJH7), in that order: 0.452, -0.197 and 0.898.
In the case of RSBN1 (UniProt Q5VWQ0), the results for the thermal stability z-score with lipoamide (setting [1]), in the assay with lipoamide (arsenate co-treatment: none) and in the assay with potassium arsenate were -0.421, -0.198 and -0.387, respectively.
Taken in the same sequence, the figures for LRSAM1 (UniProt Q6UWE0) were -0.763, -0.714 and -0.676.
For UFL1 (UniProt O94874), in that order: -0.791, -0.41 and 0.145.
For ACADVL (UniProt P49748), in that order: -0.94, -1.06 and -0.558.
On to PRPS2 (UniProt P11908), for which the thermal stability z-score with lipoamide (setting [1]) was 0.114; in the assay with lipoamide (arsenate co-treatment: none) it was -0.199; with potassium arsenate, -1.24.
Taken in the same sequence, the figures for RNGTT (UniProt O60942) were -0.0218, 0.0305 and -0.0249.
For MED14 (UniProt O60244), in that order: -0.0798, -0.176 and -0.2.
In the case of DCTD (UniProt P32321), the values for the thermal stability z-score with lipoamide (setting [1]), in the assay with lipoamide (arsenate co-treatment: none) and in the assay with potassium arsenate were 0.038, -0.504 and -0.736, respectively.
For RABGAP1 (UniProt Q9Y3P9), in that order: -0.333, -0.253 and 0.318.
For PRPF38A (UniProt Q8NAV1), in that order: 0.22, 0.213 and 0.503.
Taken in the same sequence, the figures for RTN4RL2 (UniProt Q86UN3) were -1.87, -1.25 and 0.417.
For the target PCF11 (UniProt O94913), the thermal stability z-score with lipoamide (setting [1]) is -0.0765; with lipoamide (arsenate co-treatment: none) it was -0.00889; with potassium arsenate, -0.0822.
